Reference: patent US20080033017A1, “COMPOSITIONS FOR ENHANCED ACARICIDAL ACTIVITY” (priority 2000, published 2008)
Several values for one entry are separate records, joined by “and”; a condition that tells them apart may be missing. Identical values can stand only once.

Tests used:
D. VARIABILIS = test: Comparative tick control on dogs, D. variabilis, percent control; format: in vivo, Dermacentor variabilis; parameters: concentration or dose not given beside the values
Source text: (§1) The purpose of this study was to was to determine comparative flea and tick control over a 30 day interval of a combination application of a pyrethroid and a chloronicotinyl insecticide applied dermally to dogs. This combination was compared with permethrin alone, imidacloprid alone, fipronil and selamectin. The latter two compounds are present in products that currently carry claims for both tick and flea control
(§2) Thirty-six dogs were divided into six groups of 6 dogs per group. Each dog received a single topically-applied treatment of the either “Kiltix”, a product available from Bayer Corporation containing 45% w/w permethrin, Advantage®, a product available from Bayer Corporation containing 9.1% w/w imidacloprid, a combination of Kiltix and Advantage containing 45% w/w permethrin+9.1% w/w imidacloprid, Top Spot), a product available from Merial containing 9.7% fipronil or Revolution®, a product available from Pfizer Inc. containing 12% w/v selamectin in accordance with the appropriate dose and label instructions for the various product applications. Control dogs remained untreated. All products were provided in the commercial unit dose applicator tubes.
(§3) The dogs were bathed with a mild non-medicated shampoo and thoroughly combed to remove any existing fleas or ticks 7 to 14 days prior to treatment. The dogs were infested with 100 unfed adult ticks (50 Dermacentor variabilis and 50 Rhipiciphalus sanguineus) and 100 unfed adult fleas on Day −3. Live fleas and ticks were counted on Day −1. The dogs were ranked according to total pretreatment live tick counts from highest to lowest. The 36 dogs with the highest counts were selected for the study. Each consecutive group of 6 dogs comprised one block. Treatment was randomly assigned within each block of dogs.
(§4) Each dog was examined visually for fleas and ticks on Days 1, 7, 14, 21, and 28 following treatment. The hair was parted with the thumbs and fingers to count fleas and ticks. Live tick counts were recorded by species. Live ticks only were counted visually on Days 2, 8, 15, 22, and 29. The dogs were combed on Days 3, 9, 16, 23, and 30. All remaining live fleas and ticks were counted and removed.

R. SANGUINEUS = test: Comparative tick control on dogs, R. sanguineus, percent control; format: in vivo, Rhipicephalus sanguineus; parameters: Percent control R. sanguineus: concentration or dose not given beside the values
Source text: as §1, §2, §3, §4

FLEAS (Siphoneptera) = test: Comparative flea control on dogs, percent control; format: in vivo; parameters: Percent control fleas: concentration or dose not given beside the values
Source text: as §1, §2, §3, §4

[1] = system: both species of ticks (D. variabilis and R. sanguineus); test: Tick control on dogs, both species together; format: in vivo, Dermacentor variabilis and Rhipicephalus sanguineus
Source text: as §1
Thirty-six dogs were divided into six groups of 6 dogs per group. […]
The dogs were bathed with a mild non-medicated shampoo and thoroughly combed to remove any existing fleas or ticks 7 to 14 days prior to treatment. […] Live fleas and ticks were counted on Day −1. […]
Each dog was examined visually for fleas and ticks on Days 1, 7, 14, 21, and 28 following treatment. […] Live tick counts were recorded by species. Live ticks only were counted visually on Days 2, 8, 15, 22, and 29. […] All remaining live fleas and ticks were counted and removed.

[2] = Study Day 1, single topical treatment
[3] = Study Day 2, single topical treatment
[4] = Study Day 3, single topical treatment
[5] = Study Day 7, single topical treatment
[6] = Study Day 8, single topical treatment
[7] = Study Day 9, single topical treatment
[8] = Study Day 14, single topical treatment
[9] = Study Day 15, single topical treatment
[10] = Study Day 16, single topical treatment
[11] = Study Day 21, single topical treatment
[12] = Study Day 22, single topical treatment
[13] = Study Day 23, single topical treatment
[14] = Study Day 28, single topical treatment
[15] = Day 1, single topical treatment
[16] = Day 3, single topical treatment
[17] = Day 7, single topical treatment
[18] = Day 9, single topical treatment
[19] = Day 14, single topical treatment
[20] = Day 16, single topical treatment
[21] = Day 21, single topical treatment
[22] = Day 23, single topical treatment
[23] = Day 28, single topical treatment
[24] = Day 30, single topical treatment

Row | Compound | Percent control D. variabilis (D. VARIABILIS; [2]) | Percent control D. variabilis (D. VARIABILIS; [3]) | Percent control D. variabilis (D. VARIABILIS; [4]) | Percent control D. variabilis (D. VARIABILIS; [5]) | Percent control D. variabilis (D. VARIABILIS; [6]) | Percent control D. variabilis (D. VARIABILIS; [7]) | Percent control D. variabilis (D. VARIABILIS; [8]) | Percent control D. variabilis (D. VARIABILIS; [9]) | Percent control D. variabilis (D. VARIABILIS; [10]) | Percent control D. variabilis (D. VARIABILIS; [11]) | Percent control D. variabilis (D. VARIABILIS; [12]) | Percent control D. variabilis (D. VARIABILIS; [13]) | Percent control D. variabilis (D. VARIABILIS; [14]) | Percent control R. sanguineus (R. SANGUINEUS; [2]) | Percent control R. sanguineus (R. SANGUINEUS; [3]) | Percent control R. sanguineus (R. SANGUINEUS; [4]) | Percent control R. sanguineus (R. SANGUINEUS; [5]) | Percent control R. sanguineus (R. SANGUINEUS; [6]) | Percent control R. sanguineus (R. SANGUINEUS; [7]) | Percent control R. sanguineus (R. SANGUINEUS; [8]) | further results
1 | CO[C@H]1C[C@H](O[C@@H]2/C(C)=C/C[C@@H]3C[C@@H](C[C@]4(CC[C@H](C)[C@@H](C5CCCCC5)O4)O3)OC(=O)[C@@H]3C=C(C)/C(=N/O)[C@H]4OC/C(=C\C=C\[C@@H]2C)[C@]43O)O[C@@H](C)[C@@H]1O [Selamectin, selamectin] | 26.2% | 46.7% | 70.8% | 23.1% | 61.2% | 83% and 83.2% | 16.6% | 32.7% | 46.1% | 2.7% | −0.6% | 24.7% | 0.1% | −13.1% | 48.5% | 87% and 87.4% | 83.9% | 83.6% | 95.6% | 21.5% | Percent control R. sanguineus (R. SANGUINEUS; [9]): 46.0%; Percent control R. sanguineus (R. SANGUINEUS; [10]): 70.9%; Percent control R. sanguineus (R. SANGUINEUS; [11]): −7.0%; Percent control R. sanguineus (R. SANGUINEUS; [12]): −2.2%; Percent control R. sanguineus (R. SANGUINEUS; [13]): 8.2%; Percent control R. sanguineus (R. SANGUINEUS; [14]): −16.0%; tick killing of R. sanguineus (in words) (R. SANGUINEUS; by day 16 post application): negligent; flea kill compared with imidacloprid or the combination (in words) (FLEAS (Siphoneptera)): not as effective as either imidacloprid or the combination of imidacloprid and permethrin; Percent control fleas (FLEAS (Siphoneptera); [15]): 87.3%; Percent control fleas (FLEAS (Siphoneptera); [16]): 100%; Percent control fleas (FLEAS (Siphoneptera); [17]): 100%; Percent control fleas (FLEAS (Siphoneptera); [18]): 100%; Percent control fleas (FLEAS (Siphoneptera); [19]): 99.7%; Percent control fleas (FLEAS (Siphoneptera); [20]): 100%; Percent control fleas (FLEAS (Siphoneptera); [21]): 99.8%; Percent control fleas (FLEAS (Siphoneptera); [22]): 100%; Percent control fleas (FLEAS (Siphoneptera); [23]): 86%; Percent control fleas (FLEAS (Siphoneptera); [24]): 98%; Percent control fleas (FLEAS (Siphoneptera); Day −1 (pretreatment count)): 15.1%; time required to demonstrate a significant killing of fleas (FLEAS (Siphoneptera); single topical treatment): 3 days
2 | CC1(C)C(C=C(Cl)Cl)C1C(=O)OCc1cccc(Oc2ccccc2)c1 (stereo not drawn) [Permethrin] | 36.2% | 53.9% | 75.3% | 95.2% | 96.1% | 97.1% | 91.5% | 92.9% | 96.8% | 90.8% | 85.1% | 89.3% | 79.3% | 72.7% | 75.0% | 85.0% | 99.4% | 100% | 99.0% | 95.2% | Percent control R. sanguineus (R. SANGUINEUS; [9]): 98.9%; Percent control R. sanguineus (R. SANGUINEUS; [10]): 99.4%; Percent control R. sanguineus (R. SANGUINEUS; [11]): 89.4%; Percent control R. sanguineus (R. SANGUINEUS; [12]): 91.7%; Percent control R. sanguineus (R. SANGUINEUS; [13]): 91.5%; Percent control R. sanguineus (R. SANGUINEUS; [14]): 68.6%; Percent control fleas (FLEAS (Siphoneptera); [15]): 89.8%; Percent control fleas (FLEAS (Siphoneptera); [16]): 93.9%; Percent control fleas (FLEAS (Siphoneptera); [17]): 79.4%; Percent control fleas (FLEAS (Siphoneptera); [18]): 87.8%; Percent control fleas (FLEAS (Siphoneptera); [19]): 71.9%; Percent control fleas (FLEAS (Siphoneptera); [20]): 65.1%; Percent control fleas (FLEAS (Siphoneptera); [21]): 52.9%; Percent control fleas (FLEAS (Siphoneptera); [22]): 41.9%; Percent control fleas (FLEAS (Siphoneptera); [23]): 43.9%; Percent control fleas (FLEAS (Siphoneptera); [24]): 7.7%; Percent control fleas (FLEAS (Siphoneptera); Day −1 (pretreatment count)): 1.5%; killing of fleas (in words) (FLEAS (Siphoneptera); from day 1 through day 21): some killing effect on fleas; time required to approach a 100% killing of ticks ([1]; single topical treatment): 7 days
3 | O=[N+]([O-])N=C1NCCN1Cc1ccc(Cl)nc1 [Imidacloprid, 1-[(6-chloro-3-pyridinyl)methyl]-N-nitro-2-imidazolidinimine] | −12.0% | 16.9% | 30.9% | 32.5% | 35.3% | 39.4% | 50.3% | 66.4% | 68.4% | 50.2% | 40.1% | 50.2% | 38.8% | 15.5% | 42.4% | 35.9% | 67.2% | 72.0% | 66.6% | 53.5% | Percent control R. sanguineus (R. SANGUINEUS; [9]): 58.2%; Percent control R. sanguineus (R. SANGUINEUS; [10]): 54.0%; Percent control R. sanguineus (R. SANGUINEUS; [11]): 41.5%; Percent control R. sanguineus (R. SANGUINEUS; [12]): 18.9%; Percent control R. sanguineus (R. SANGUINEUS; [13]): −5.3%; Percent control R. sanguineus (R. SANGUINEUS; [14]): 39.1%; Percent control fleas (FLEAS (Siphoneptera); [15]): 100%; Percent control fleas (FLEAS (Siphoneptera); [16]): 100%; Percent control fleas (FLEAS (Siphoneptera); [17]): 100%; Percent control fleas (FLEAS (Siphoneptera); [18]): 100%; Percent control fleas (FLEAS (Siphoneptera); [19]): 100%; Percent control fleas (FLEAS (Siphoneptera); [20]): 100%; Percent control fleas (FLEAS (Siphoneptera); [21]): 100%; Percent control fleas (FLEAS (Siphoneptera); [22]): 99.6%; Percent control fleas (FLEAS (Siphoneptera); [23]): 98.6%; Percent control fleas (FLEAS (Siphoneptera); [24]): 99.4%; Percent control fleas (FLEAS (Siphoneptera); Day −1 (pretreatment count)): 5.4%; killing of fleas (in words) (FLEAS (Siphoneptera); from day 1 through day 30): killed essentially all of the fleas
4 | N#Cc1nn(-c2c(Cl)cc(C(F)(F)F)cc2Cl)c(N)c1[S+]([O-])C(F)(F)F (stereo not drawn) [Fipronil, fipronil] | *92.9% | *100% | 100% | 100% | 100% | 100% | 98.7% | 100% | 100% | 92.7% | 98.7% | 100% | 69.7% | 96.3% | 100% | 100% | 100% | 100% | 100% | 99.4% | Percent control R. sanguineus (R. SANGUINEUS; [9]): 100%; Percent control R. sanguineus (R. SANGUINEUS; [10]): 99.4%; Percent control R. sanguineus (R. SANGUINEUS; [11]): 86.0%; Percent control R. sanguineus (R. SANGUINEUS; [12]): 100%; Percent control R. sanguineus (R. SANGUINEUS; [13]): 100%; Percent control R. sanguineus (R. SANGUINEUS; [14]): 65.3%; flea kill compared with imidacloprid or the combination (in words) (FLEAS (Siphoneptera)): rate of flea kill equal to that of imidacloprid or the combination of imidacloprid and permethrin; Percent control fleas (FLEAS (Siphoneptera); [15]): 100%; Percent control fleas (FLEAS (Siphoneptera); [16]): 100%; Percent control fleas (FLEAS (Siphoneptera); [17]): 100%; Percent control fleas (FLEAS (Siphoneptera); [18]): 100%; Percent control fleas (FLEAS (Siphoneptera); [19]): 100%; Percent control fleas (FLEAS (Siphoneptera); [20]): 100%; Percent control fleas (FLEAS (Siphoneptera); [21]): 100%; Percent control fleas (FLEAS (Siphoneptera); [22]): 100%; Percent control fleas (FLEAS (Siphoneptera); [23]): 100%; Percent control fleas (FLEAS (Siphoneptera); [24]): 100%; Percent control fleas (FLEAS (Siphoneptera); Day −1 (pretreatment count)): 22.4%; onset of tick kill (in words) ([1]; both tick species): early kill, similar to that of the combination of permethrin and imidacloprid
